Assay results: patent US5726159A, “Antithrombotic agents” (Eli Lilly and Company, priority 1995, dated 1998)
Counter-ions that a name gives are not always drawn.

Columns and labels:
Format in all cases: biochemical
Conditions in all cases: concentration required to double the clotting time
[1] = tested on: Human plasma; assay: Human plasma anticoagulation, prothrombin time (PT)
Method: (§1) Dog plasma and rat plasma is obtained from conscious mixed-breed hounds (either sex, Hazelton-LRE, Kalamazoo, Mich., U.S.A.) or from anesthetized male Sprague-Dawley rats (Harlan Sprague-Dawley, Inc., Indianapolis, Ind., U.S.A.) by venipuncture into 3.8 percent citrate. Fibrinogen is prepared from in-date ACD human blood as the fraction I-2 according to previous procedures and specifications. […] Human fibrinogen is also purchased as 98 percent pure/plasmin free from American Diagnostica, Greenwich, Conn. Coagulation reagents ACTIN, Thromboplastin, and Human plasma are from Baxter Healthcare Corp., Dade Division, Miami, Fla. Bovine thrombin from Parke-Davis ([…], Mich.) is used for coagulation assays in plasma.
(§2) Coagulation assay procedures are as previously described. […] A CoAScreener coagulation instrument (American LABor, Inc.) is used for all coagulation assay measurements. The prothrombin time (PT) is measured by adding 0.05 mL saline and 0.05 mL Thromboplastin-C reagent to 0.05 mL test plasma. The activated partial thromboplastin time (APTT) is measured by incubation of 0.05 mL test plasma with 0.05 mL Actin reagent for 120 seconds followed by 0.05 mL CaCl2 (0.02M). The thrombin time (TT) is measured by adding 0.05 mL saline and 0.05 mL thrombin (10 NIH units/mL) to 0.05 mL test plasma. The compounds of Formula I are added to human or animal plasma over a wide range of concentrations to determine prolongation effects on the APTT, PT, and TT assays. Linear extrapolations are performed to estimate the concentrations required to double the clotting time for each assay.

[2] = tested on: Human plasma; assay: Human plasma anticoagulation, thrombin time (TT)
Method: as §1, §2

[3] = tested on: Human plasma; assay: Human plasma anticoagulation, activated partial thromboplastin time (APTT)
Method: as §1, §2

| Compound | 2x Clotting time PT [1] | 2x Clotting time TT [2] | 2x Clotting time APTT [3] |
| --- | --- | --- | --- |
| CCS(=O)(=O)N[C@H](CC1CCCCC1)C(=O)N1CCC[C@H]1C(=O)NCc1ccc(N)nc1 [Example 84, EtSO2 -D-Cha-Pro-5-NHCH2 -2-aminopyridine.HCl] | 1,900 ng/mL | 110 ng/mL | 1,500 ng/mL |
| O=C(O)CN[C@H](CC1CCCCC1)C(=O)N1CCC[C@H]1C(=O)NCC1CCNCC1 [Example 53, HO2 CCH2 -D-Cha-Pro-4-NHCH2 -piperidine.HCl] | 34,500 ng/mL | 1,400 ng/mL | 33,800 ng/mL |
| Nc1cc(CCNC(=O)[C@@H]2CCCN2C(=O)[C@@H](CC2CCCCC2)NCC(=O)O)ccn1 [Example 76, HO2 CCH2 -D-Cha-Pro-4-NHCH2 CH2 -2-aminopyridine.HCl] | 560 ng/mL | 29 ng/mL | 490 ng/mL |
| N=C(N)c1ccc(CNC(=O)[C@@H]2CCCN2C(=O)[C@@H](CC2CCCCC2)NCCCC(=O)O)cc1 [Example 85, HOOCCH2 CH2 CH2 -D-Cha-Pro-p-NHCH2 C6 H4 C(NH)NH2.HCl] | 197 ng/mL | 4.9 ng/mL | 100 ng/mL |
| D-hPro-Pro-p-NHCH2 C6 H4 C(NH)NH2.HCl [Example 17] | 400 ng/mL | 26 ng/mL | 370 ng/mL |
| NCC1CCC(CNC(=O)[C@@H]2CCCN2C(=O)[C@@H](CC2CCCCC2)NCC(=O)O)CC1 (stereo partly drawn) [Example 79, HO2 CCH2 -D-Cha-Pro-4-NHCH2 C6 H10 CH2 NH2.HCl] | 2,400 ng/mL | 140 ng/mL | 1,700 ng/mL |
| N=C(N)c1ccc(CNC(=O)[C@@H]2CCCN2C(=O)[C@H](NCC(=O)O)C2CCCCC2)cc1 [Example 86, HOOCCH2 -D-Chg-Pro-p-NHCH2 C6 H4 C(NH)NH2.HCl] | 180 ng/mL | 4 ng/mL | 81 ng/mL |
| 1-Piq-Pro-p-NHCH2 C6 H4 C(NH)NH2.2HCl [Example 18] | 170 ng/mL | 7 ng/mL | 79 ng/mL |
| CCS(=O)(=O)N[C@H](CC1CCCCC1)C(=O)N1CCC[C@H]1C(=O)NCc1ccc(N)cc1F [Example 82, EtSO2 -D-Cha-Pro-4-NHCH2 -3-F-C6 H3 NH2.HCl] | 3,000 ng/mL | 130 ng/mL | 3,800 ng/mL |
| Nc1ccc(CNC(=O)[C@@H]2CCCN2C(=O)[C@@H](CC2CCCCC2)NCC(=O)O)cn1 [Example 74, HO2 CCH2 -D-Cha-Pro-5-NHCH2 -2-aminopyridine.HCl] | 350 ng/mL | 20 ng/mL | 420 ng/mL |
| O=C(O)CN[C@H](CC1CCCCC1)C(=O)N1CCC[C@H]1C(=O)NCC1=CCNCC1 [Example 58, HO2 CCH2 -D-Cha-Pro-4-NHCH2 -3,4-dehydro-piperidine.HCl] | 11,400 ng/mL | 710 ng/mL | 14,300 ng/mL |
| CCS(=O)(=O)N[C@H](Cc1ccccc1)C(=O)N1CCC[C@H]1C(=O)NCCCc1ccc(C(=N)N)cc1 [Example 30, EtSO2 -D-Phe-Pro-p-NHCH2 CH2 CH2 -C6 H4 C(=NH)NH2.HCl] | 14,400 ng/mL | 1,000 ng/mL | 14,000 ng/mL |
| CCC(CC)C(=O)N[C@@H](CCS(C)(=O)=O)C(=O)N1CCC[C@H]1C(=O)NCc1ccc(C(=N)N)cc1 [Example 91, (C2 H5)2 CHCO-Met(O2)-Pro-p-NHCH2 C6 H4 C(NH)NH2.HCl] | 3,500 ng/mL | 63 ng/mL | 3,000 ng/mL |
| N=C(N)N1CC=C(CNC(=O)[C@@H]2CCCN2C(=O)[C@@H](CC2CCCCC2)NCC(=O)O)CC1 [Example 70, HO2 CCH2 -D-Cha-Pro-4-NHCH2 -1-amidino-3,4-dehydro-piperidine.HCl] | 180 ng/mL | 2 ng/mL | 160 ng/mL |
| NCc1ccc(CNC(=O)[C@@H]2CCCN2C(=O)[C@@H](CC2CCCCC2)NCC(=O)O)cc1 [Example 78, HO2 CCH2 -D-Cha-Pro-4-NHCH2 C6 H4 CH2 NH2.HCl] | 760 ng/mL | 46 ng/mL | 430 ng/mL |
